Target: T1, PI3K (p110α/p85α) (Homo sapiens, UniProt P42336)
T1 construct: purchased Carna Biosciences 07CBS-0402A
Experiment: PI3K activity assay (ADP Hunter Plus)
Type: biochemical
Details: PI3Kα; class symbols; read-out: PI3K α IC50 (semi-quantitative)
Experimental: The kinase activity was measured by using the commercial ADP Hunter™ Plus assay available from DiscoveRx (#33-016), which is a homogeneous assay to measure the accumulation of ADP, a universal product of kinase activity. […] Reaction was carried out for 1 hour at 25° C. Reagent A and B were sequentially added to the wells and plates were incubated for 30 min at 37° C. […] Values were normalized against the control activity included for each enzyme (i.e., 100% PI3 kinase activity, without compound). These values were plot against the inhibitor concentration and were fit to a sigmoid dose-response curve by using the Graphed software.

T1 sequence (P42336 whole entry): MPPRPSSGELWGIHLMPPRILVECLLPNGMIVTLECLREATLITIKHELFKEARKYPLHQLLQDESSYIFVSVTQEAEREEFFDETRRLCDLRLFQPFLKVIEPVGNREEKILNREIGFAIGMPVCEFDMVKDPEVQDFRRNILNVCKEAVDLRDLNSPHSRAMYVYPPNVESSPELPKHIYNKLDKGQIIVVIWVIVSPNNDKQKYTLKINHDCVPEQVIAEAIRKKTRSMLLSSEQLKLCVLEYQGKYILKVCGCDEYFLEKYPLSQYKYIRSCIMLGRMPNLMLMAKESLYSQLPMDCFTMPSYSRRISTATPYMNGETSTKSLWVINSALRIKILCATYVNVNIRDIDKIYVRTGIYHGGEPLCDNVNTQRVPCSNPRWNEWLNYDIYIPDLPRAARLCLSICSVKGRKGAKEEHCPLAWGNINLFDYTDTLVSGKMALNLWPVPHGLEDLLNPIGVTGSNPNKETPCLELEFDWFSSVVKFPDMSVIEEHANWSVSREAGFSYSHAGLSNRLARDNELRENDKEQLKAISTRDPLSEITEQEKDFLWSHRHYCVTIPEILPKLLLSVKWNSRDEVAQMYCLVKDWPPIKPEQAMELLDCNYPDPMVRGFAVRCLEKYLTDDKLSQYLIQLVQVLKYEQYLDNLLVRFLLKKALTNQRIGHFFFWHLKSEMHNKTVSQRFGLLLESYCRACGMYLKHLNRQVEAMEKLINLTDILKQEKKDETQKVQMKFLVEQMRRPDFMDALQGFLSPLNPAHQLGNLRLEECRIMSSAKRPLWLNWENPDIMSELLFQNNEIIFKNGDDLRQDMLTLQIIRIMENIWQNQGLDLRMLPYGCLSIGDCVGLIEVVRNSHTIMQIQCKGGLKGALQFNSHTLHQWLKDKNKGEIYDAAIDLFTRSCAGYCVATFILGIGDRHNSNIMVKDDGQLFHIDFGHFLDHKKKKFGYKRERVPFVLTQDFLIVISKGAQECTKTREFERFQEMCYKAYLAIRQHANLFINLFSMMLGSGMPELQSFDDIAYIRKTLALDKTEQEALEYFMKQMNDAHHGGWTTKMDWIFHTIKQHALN
T1 sequence (P27986 whole entry partner): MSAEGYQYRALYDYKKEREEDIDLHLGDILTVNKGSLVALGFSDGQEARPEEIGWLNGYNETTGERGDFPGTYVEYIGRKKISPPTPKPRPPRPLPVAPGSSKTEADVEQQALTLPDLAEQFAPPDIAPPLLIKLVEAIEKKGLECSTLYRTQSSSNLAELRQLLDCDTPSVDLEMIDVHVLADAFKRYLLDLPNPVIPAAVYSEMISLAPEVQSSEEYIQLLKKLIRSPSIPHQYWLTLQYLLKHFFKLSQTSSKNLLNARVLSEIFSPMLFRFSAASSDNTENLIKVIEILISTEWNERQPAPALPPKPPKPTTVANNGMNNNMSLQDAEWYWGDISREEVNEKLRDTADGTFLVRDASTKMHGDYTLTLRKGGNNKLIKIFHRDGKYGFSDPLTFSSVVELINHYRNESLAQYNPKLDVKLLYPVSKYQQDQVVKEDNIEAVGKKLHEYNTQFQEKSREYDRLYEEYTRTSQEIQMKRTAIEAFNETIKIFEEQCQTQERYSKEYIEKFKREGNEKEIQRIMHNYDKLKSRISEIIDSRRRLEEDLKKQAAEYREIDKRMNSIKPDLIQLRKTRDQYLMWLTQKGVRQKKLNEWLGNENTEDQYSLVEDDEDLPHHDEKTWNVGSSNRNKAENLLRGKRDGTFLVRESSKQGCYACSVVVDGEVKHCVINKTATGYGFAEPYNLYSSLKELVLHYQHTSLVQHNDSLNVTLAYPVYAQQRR

Row | IC50 | SMILES
1 | > 1 µM | CCOC(=O)N1CCc2nc3c(N4CCOCC4)nc(-c4cccc5[nH]ncc45)cn3c2C1 [2-03, 3-(1H-Indazol-4-yl)-1-morpholin-4-yl-7,8-dihydro-5H-2,4-a,6,9-tetraaza-fluorene-6-carboxylic acid ethyl ester]
2 | > 1 µM | c1cncc(CN2CCc3nc4c(N5CCOCC5)nc(-c5cccc6[nH]ncc56)cn4c3C2)c1 [2-05]
3 | > 1 µM | c1cc(-c2cn3c4c(nc3c(N3CCOCC3)n2)CCN(Cc2nccs2)C4)c2cn[nH]c2c1 [2-06]
4 | > 1 µM | c1cc(-c2cn3c4c(nc3c(N3CCOCC3)n2)CCN(CC2CCOCC2)C4)c2cn[nH]c2c1 [2-09]
5 | > 1 µM | CS(=O)(=O)c1ccc(CN2CCc3nc4c(N5CCOCC5)nc(-c5cccc6[nH]ncc56)cn4c3C2)cc1 [2-10]
6 | > 1 µM | c1cc(-c2cn3c4c(nc3c(N3CCOCC3)n2)CCN(Cc2ncc[nH]2)C4)c2cn[nH]c2c1 [2-13]
7 | > 1 µM | c1cc(-c2cn3c4c(nc3c(N3CCOCC3)n2)CCN(CC2CNC2)C4)c2cn[nH]c2c1 [2-14]
8 | > 1 µM | CCOC(=O)N1CCc2nc3c(N4CCOCC4)nc(-c4ccc(N)nc4)cn3c2C1 [2-21]
9 | > 1 µM | CCOC(=O)N1CCc2nc3c(N4CCOCC4)nc(-c4ccc5[nH]ccc5c4)cn3c2C1 [2-22]
10 | > 1 µM | CCOC(=O)N1CCc2nc3c(N4CCOCC4)nc(-c4cccnc4)cn3c2C1 [2-24]
11 | > 1 µM | CCOC(=O)N1CCc2nc3c(N4CCOCC4)nc(-c4cnc(N)c(C(F)(F)F)c4)cn3c2C1 [2-25]
12 | > 1 µM | CCOC(=O)N1CCc2nc3c(N4CCOCC4)nc(-c4c(F)ccc5[nH]ccc45)cn3c2C1 [2-26]
13 | > 1 µM | CCOC(=O)N1CCc2nc3c(N4CCOCC4)nc(-c4ccc5[nH]ccc5c4)c(Cl)n3c2C1 [2-29]
14 | > 1 µM | CCOC(=O)N1CCc2nc3c(N4CCOCC4)nc(-c4cncc(OC)c4)c(Cl)n3c2C1 [2-30]
15 | > 1 µM | CCOC(=O)N1CCc2nc3c(N4CCOCC4)nc(-c4cccnc4)c(Cl)n3c2C1 [2-31]
16 | > 1 µM | Nc1ncc(-c2cn3c4c(nc3c(N3CCOCC3)n2)CCN(CC2CCOCC2)C4)cn1 [2-36]
17 | > 1 µM | CCOC(=O)C1CCC(N2CCc3nc4c(N5CCOCC5)nc(-c5cnc(N)nc5)cn4c3C2)CC1 (centres unmarked) [2-40]
18 | > 1 µM | CCOC(=O)N1CCc2nc3c(N4CCOCC4)nc(-c4cncnc4)cn3c2C1 [2-41]
19 | < 0.5 µM | CC(C)NC(=O)N1CCc2nc3c(N4CCOCC4)nc(-c4cnc(N)nc4)cn3c2C1 [2-44]
20 | > 1 µM | c1nc(NCC2CC2)ncc1-c1cn2c3c(nc2c(N2CCOCC2)n1)CCN(CC1CC1)C3 [2-47]

Same assay, conditions: PI3Kα; quantitative results; read-out: PI3K α IC50

Row | IC50 | SMILES
21 | 0.207 µM | CCOC(=O)N1CCc2nc3c(N4CCOCC4)nc(-c4cccc(O)c4)cn3c2C1 [2-01, 3-(3-Hydroxy-phenyl)-1-morpholin-4-yl-7,8-dihydro-5H-2,4-a,6,9-tetraaza-fluorene-6-carboxylic acid ethyl ester]
22 | 0.185 µM | Oc1cccc(-c2cn3c4c(nc3c(N3CCOCC3)n2)CCNC4)c1 [2-02]
23 | 0.852 µM | c1cc(-c2cn3c4c(nc3c(N3CCOCC3)n2)CCN(Cc2ccncc2)C4)c2cn[nH]c2c1 [2-07]
24 | 0.439 µM | c1ccc(CN2CCc3nc4c(N5CCOCC5)nc(-c5cccc6[nH]ncc56)cn4c3C2)nc1 [2-08]
25 | 1.78 µM | c1coc(CN2CCc3nc4c(N5CCOCC5)nc(-c5cccc6[nH]ncc56)cn4c3C2)c1 [2-11]
26 | 0.708 µM | c1cc(-c2cn3c4c(nc3c(N3CCOCC3)n2)CCN(Cc2ccoc2)C4)c2cn[nH]c2c1 [2-12]
27 | 3.33 µM | CS(=O)(=O)c1cccc(CN2CCc3nc4c(N5CCOCC5)nc(-c5cccc6[nH]ncc56)cn4c3C2)c1 [2-15]
28 | 0.724 µM | CCOC(=O)N1CCc2nc3c(N4CCOCC4)nc(-c4cnc(OC)nc4)cn3c2C1 [2-19]
29 | 1.05 µM | CCOC(=O)N1CCc2nc3c(N4CCOCC4)nc(-c4cnc5[nH]ccc5c4)cn3c2C1 [2-20]
30 | 2.7 µM | CCOC(=O)N1CCc2nc3c(N4CCOCC4)nc(-c4cncc(OC)c4)cn3c2C1 [2-23]
31 | 0.603 µM | CCOC(=O)N1CCc2nc3c(N4CCOCC4)nc(-c4cnc(OC)nc4)c(Cl)n3c2C1 [2-27]
32 | 1.07 µM | CCOC(=O)N1CCc2nc3c(N4CCOCC4)nc(-c4cnc5[nH]ccc5c4)c(Cl)n3c2C1 [2-28]
33 | 1.78 µM | CCOC(=O)N1CCc2nc3c(N4CCOCC4)nc(-c4cnc(N)c(C(F)(F)F)c4)c(Cl)n3c2C1 [2-33]
34 | 0.692 µM | CC(C)CN1CCc2nc3c(N4CCOCC4)nc(-c4cnc(N)nc4)cn3c2C1 [2-35]
35 | 0.363 µM | Nc1ncc(-c2cn3c4c(nc3c(N3CCOCC3)n2)CCN(CC2CCCCC2)C4)cn1 [2-37]
36 | 0.55 µM | CC(C)C(=O)N1CCc2nc3c(N4CCOCC4)nc(-c4cnc(N)nc4)cn3c2C1 [2-43]
37 | 0.257 µM | CCN1CCc2nc3c(N4CCOCC4)nc(-c4cnc(N)nc4)cn3c2C1 [2-45]
38 | 0.1 µM | COC(=O)N1CCc2nc3c(N4CCOCC4)nc(-c4cnc(N)nc4)cn3c2C1 [2-48]
39 | 0.148 µM | CCCNC(=O)N1CCc2nc3c(N4CCOCC4)nc(-c4cnc(N)nc4)c(Cl)n3c2C1 [2-54]
40 | 0.033 µM | CCCCS(=O)(=O)N1CCc2nc3c(N4CCOCC4)nc(-c4cnc(N)nc4)cn3c2C1 [2-55]
41 | 0.101 µM | Nc1ncc(-c2nc(N3CCOCC3)c3nc4c(n3c2Cl)CN(S(=O)(=O)c2ccccc2)CC4)cn1 [2-58]
42 | 0.019 µM | N#CCCCS(=O)(=O)N1CCc2nc3c(N4CCOCC4)nc(-c4cnc(N)nc4)cn3c2C1 [2-77]
43 | 0.34 µM | Nc1ncc(-c2cn3c4c(nc3c(N3CCOCC3)n2)CCN(CC2CCCC2)C4)cn1 [2-80]
44 | 0.238 µM | Nc1ncc(-c2cn3c4c(nc3c(N3CCOCC3)n2)CCN(C2CCCCC2)C4)cn1 [2-81]
45 | 0.175 µM | Nc1ncc(-c2cn3c4c(nc3c(N3CCOCC3)n2)CCN(Cc2ccnnc2)C4)cn1 [2-84]
46 | 0.094 µM | CCCC(=O)N1CCc2nc3c(N4CCOCC4)nc(-c4cnc(N)nc4)cn3c2C1 [2-86]
47 | 0.24 µM | COc1cccc(CN2CCc3nc4c(N5CCOCC5)nc(-c5cnc(N)nc5)cn4c3C2)c1 [2-95]
48 | 0.31 µM | Nc1ncc(-c2cn3c4c(nc3c(N3CCOCC3)n2)CCN(Cc2ccc(OC(F)(F)F)cc2)C4)cn1 [2-100]
49 | 0.125 µM | Nc1ncc(-c2cn3c4c(nc3c(N3CCOCC3)n2)CCN(Cc2ccncc2)C4)cn1 [2-107]

Same assay, conditions: quantitative results; read-out: PI3K α IC50

Row | IC50 | SMILES
50 | 0.007 µM | Nc1ncc(-c2cn3c4c(nc3c(N3CCOCC3)n2)CCN(S(=O)(=O)C2CNC2)C4)cn1 [2-110]
51 | 0.139 µM | Nc1ncc(-c2cn3c4c(nc3c(N3CCOCC3)n2)CCN(Cc2nccs2)C4)cn1 [2-111]
52 | 0.09 µM | Nc1ncc(-c2cn3c4c(nc3c(N3CCOCC3)n2)CCN(C(=O)Nc2cc(Cl)cc(Cl)c2)C4)cn1 [2-112]
53 | 0.081 µM | N#Cc1cccc(NC(=O)N2CCc3nc4c(N5CCOCC5)nc(-c5cnc(N)nc5)cn4c3C2)c1 [2-113]
54 | 0.037 µM | CS(=O)(=O)c1ccccc1CN1CCc2nc3c(N4CCOCC4)nc(-c4cnc(N)nc4)cn3c2C1 [2-117]
55 | 0.661 µM | CC1(C)Cc2nc3c(N4CCOCC4)nc(-c4cnc(N)nc4)cn3c2C(O)C1 (centres unmarked) [5-05]
56 | 0.409 µM | O=C1CCc2nc3c(N4CCOCC4)nc(-c4cccc(O)c4)cn3c2N1 [5-10]
57 | 0.178 µM | CN(C)CCN1CCc2c(nc3c(N4CCOCC4)nc(-c4cnc(N)nc4)cn23)C1 [6-04]
58 | 0.29 µM | Nc1ncc(-c2nc(N3CCOCC3)c3nc4c(n3c2Cl)CCN(Cc2ccc(F)cc2)C4)cn1 [6-12]
59 | 0.023 µM | Nc1ncc(-c2cn3c4c(nc3c(N3CCOCC3)n2)CN(C(=O)C(F)(F)F)CC4)cn1 [6-14]
